Earlier results, collected in publication PMC5384962, “First-in-human studies of seletalisib, an orally bioavailable small-molecule PI3Kδ inhibitor for the treatment of immune and inflammatory diseases” (European Journal of Clinical Pharmacology, 2017).

Design: method as in ref 29 = [29]; 29. Infinity Pharmaceuticals (2015) Press release: Infinity reports topline results from Phase 2 study of duvelisib in rheumatoid arthritis.
Details: patients with moderate-to-severe RA; cited from earlier work

**Q.** With `C[C@H](Nc1ncnc2nc[nH]c12)c1cc2cccc(Cl)c2c(=O)n1-c1ccccc1` [duvelisib] as the molecule, how does the “phase II primary endpoint (ACR20 at week 12)” value read?
**A.** failed to meet its phase II study primary endpoint
